Measurements as given in patent US4450173A, “Compounds and method for treatment or prophylaxis of cardiac disorders” (American Hospital Supply Corporation, priority 1982, dated 1984).
Like-named read-outs stand apart in the source and are kept apart here.

Tests used:
[1] = target: guinea pig tracheal strips (Cavia porcellus, UniProt Q8K4Z4); assay: cell-based; type: cell-based; conditions: guinea pig trachea, carbachol tension, isoproterenol, 60 minute incubation, pA2 = -log KB
Description: Each tissue was suspended between a fixed glass rod and a Statham® Universal Transducer connected to a Beckman® recorder. Atria were allowed to beat spontaneously under a loading tension of approximately 0.5 gm. Intrinsic depressant for stimulant activity was determined for each compound by progressively increasing concentrations in the tissue baths at 60-minute intervals. Tissues were not washed between increments. […] Changes in rate in response to isoproterenol were measured in the absence and presence of test compounds. Spiral strips of guinea pig trachea were suspended under 5 gm resting tension and incubated with phentolamine, tropolone and cocaine. Active tension was generated by addition of carbachol (3.0×10^-7 M) and decreases in tension in response to isoproterenol were quantitated. Cumulative concentration-response curves were produced with isoproterenol both before and after 60 minute incubation of test compounds with atria and trachea. The blocking potency of test compounds was estimated by computing pA2 values (-log KB) by the method of Furchgott, The Pharmacological Differentiation of Adrenergic Receptors, Ann. […] A ratio greater than one indicates cardioselectivity.

[2] = tested on: guinea pig right atria and guinea pig tracheal strips; assay: Cardioselectivity, KB tracheal/KB atrial; type: cell-based
Description: Several of the compounds of the present invention were tested for β-blocking activity in vitro using guinea pig right atria and guinea pig tracheal strips mounted in a tissue bath containing oxygenated (95% O2 -5% CO2) Krebs physiological salt solution at 37° C. Each tissue was suspended between a fixed glass rod and a Statham® Universal Transducer connected to a Beckman® recorder. Atria were allowed to beat spontaneously under a loading tension of approximately 0.5 gm. Intrinsic depressant for stimulant activity was determined for each compound by progressively increasing concentrations in the tissue baths at 60-minute intervals. Tissues were not washed between increments. […]. Changes in rate in response to isoproterenol were measured in the absence and presence of test compounds. Spiral strips of guinea pig trachea were suspended under 5 gm resting tension and incubated with phentolamine, tropolone and cocaine. Active tension was generated by addition of carbachol (3.0×10^-7 M) and decreases in tension in response to isoproterenol were quantitated. Cumulative concentration-response curves were produced with isoproterenol both before and after 60 minute incubation of test compounds with atria and trachea. The blocking potency of test compounds was estimated by computing pA2 values (-log KB) by the method of Furchgott, The Pharmacological Differentiation of Adrenergic Receptors, Ann. N.Y. Acad. Sci.; 139: 553-570 (1967). Comparison of blockade of right atrial and tracheal responses to isoproterenol permitted assessment of cardioselectivity of test compounds; […]. A ratio greater than one indicates cardioselectivity. […]

[3] = tested on: heart rate response to isoproterenol (β-receptor mediated tachycardia); assay: Duration of β-blockade in vivo in anesthetized dogs, 40-minute infusion; parameters: species or system dog; conditions: for ED50: Canis lupus familiaris, iv, 40 min, read-out: Potency (mg/kg/40 min); for 80% Recovery Time: after 40-minute infusion, normalized to 50% inhibition, dogs
Description: (§1) The duration of β-blockade was determined in vivo using pentobartital-anesthetized dogs instrumented for measurement of heart rate using a Beckman® cardiotachometer triggered electronically by a phasic aortic blood pressure signal. Both vagus nerves were severed in the cervical region and the animals were mechanically ventilated. Two experimental designs were used. The first employed a 40-minute infusion of test compound and the second used a 3-hour infusion of test compound. In the 40-minute model, isoproterenol was infused into a foreleg vein at the rate of 0.5 μg/kg/min to induce a β-receptor mediated tachycardia. Various doses of test compound are then infused into a femoral vein over a period of 40 minutes. This infusion was then terminated and recovery from blockade was quantitated. […] This cumulative dose is expressed as mg/kg and is an indication of potency. The time period required for 80% recovery of heart rate response for each dose of test drug was also measured to quantitate duration of action. […] Test compounds were dissolved in 0.9% NaCl and infused at a rate of 0.05 mL/kg/min or less. In the 3-hour infusion model, bolus doses of isoproterenol (0.4 μg/kg) were used to assess the degree of β-blockade and recovery from β-blockade after termination of the infusion. The doses were spaced at 10-minute intervals and were given before, during and following the infusion of test compounds. The infusion rate was adjusted so that at the end of the 3-hour infusion period the degree of isoproterenol inhibition averaged about 50% of control.

[4] = Disappearance in vitro in human whole blood; type: in vitro ADME; conditions: 50 μg in 1 mL added to 1 mL human whole blood, 37° C.; read-out: T1/2 Human Whole Blood
Description: (§2) The rate of disappearance of a compound is expressed as the half-life (T1/2), which is the time period in which one-half of the initial amount of compound tested disappears. In each experiment, 1 mL of a solution containing 50 μg of the test compound was added to 1 mL of whole blood or 1 mL of a 33% (w/v) liver homogenate. […] At the designated time periods, the test mixtures were removed from the incubator and transferred to a 0° C. ice bath. Acetonitrile (2 mL) was immediately added and the mixtures were mixed to stop enzymatic hydrolysis. Zero time samples were prepared by adding 2 mL of acetonrile to denature the proteins prior to addition of the test compounds. […] The half life of each test compound was determined graphically by plotting the decrease in concentration as a function of time.

[5] = Disappearance in vitro in dog whole blood; type: in vitro ADME; conditions: 50 μg in 1 mL added to 1 mL dog whole blood, 37° C.; read-out: T1/2 Dog Whole Blood
Description: as §2

[6] = Disappearance in vitro in dog liver homogenate; type: in vitro ADME; conditions: 50 μg in 1 mL added to 1 mL of 33% (w/v) dog liver homogenate, 37° C.; read-out: T1/2 Dog Liver Homogenate
Description: as §2

[7] = tested on: heart rate response to isoproterenol; assay: Duration of β-blockade in vivo in anesthetized dogs, 3-hour infusion; parameters: species or system dog
Description: as §1

Sequence of guinea pig tracheal strips (Q8K4Z4 whole entry): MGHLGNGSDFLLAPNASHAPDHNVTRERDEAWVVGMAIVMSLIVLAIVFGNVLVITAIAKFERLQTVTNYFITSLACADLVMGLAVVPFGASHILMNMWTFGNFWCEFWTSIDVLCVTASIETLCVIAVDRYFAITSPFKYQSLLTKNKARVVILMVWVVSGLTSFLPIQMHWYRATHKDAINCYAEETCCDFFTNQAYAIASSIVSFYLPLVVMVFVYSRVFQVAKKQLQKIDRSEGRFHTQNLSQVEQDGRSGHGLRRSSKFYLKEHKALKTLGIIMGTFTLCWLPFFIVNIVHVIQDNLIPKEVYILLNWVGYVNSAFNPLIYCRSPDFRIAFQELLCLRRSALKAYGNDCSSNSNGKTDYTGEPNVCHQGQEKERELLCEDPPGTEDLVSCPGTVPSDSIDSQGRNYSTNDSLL

Row | Compound | pA2 Trachea [1] | Cardioselectivity [2] | ED50 [3] | 80% Recovery Time [3] | half-life [4] | half-life [5] | half-life [6] | Cardioselectivity ([2]; ratio KB tracheal/KB atrial, greater than one indicates cardioselectivity) | ED50 ([7]; Canis lupus familiaris, iv, 3-hour infusion, bolus isoproterenol 0.4 μg/kg, read-out: Potency (mg/kg/180 min)) | 80% Recovery Time ([7]; after 3-hour infusion) | % I (Percent inhibition of heart rate response to isoproterenol) ([7]; end of 3-hour infusion, bolus isoproterenol 0.4 μg/kg)
1 | CCOC(=O)CCCCNCC(O)COc1ccccc1C (centres unmarked) [XII] | 7.4 | 2.5 | 6.8 ± 3.7 mg/kg | 11 ± 2 min | 1.55 ± 0.5 h | 2.53 ± 1.18 h | 8.8 ± 6 min |  |  |  | 
2 | CCOC(=O)CCNCC(O)COc1ccccc1C (centres unmarked) [X] | 7.4 |  | 0.99 ± 0.27 mg/kg | 14 ± 2 min | 2.58 ± 0.15 h | 3 h | 3 ± 1 min | 1 | 6.8 mg/kg | > 60 min | 69 ± 5%
